US10751324B2, “Treatment of TNF- alpha cytotoxicity” (The University of Chicago, priority 2016, dated 2020)

Experiments:
BAD [1] = assay: TNFα-induced BAD mitochondrial translocation in fibroblasts pre-treated with actin stress fiber modulators; format: cell-based, mouse; conditions: for cytotoxic dose TNFα-induced BAD mitochondrial translocation: pre-treated 1 hour (30 nM Jasplakinolide or 5 μM S1P), then 80 ng/ml TNFα, FIG. 10A, 10C; for BAD mitochondrial translocation with non-cytotoxic dose TNFα: pre-treated 1 hour (1 μg/ml Cytochalasin D or 2.5 μg/ml Latrunculin B), 5 ng/ml TNFα 4 hours, FIG. 10E, 10G
Experimental: Immunoprecipitation was performed as previously described (12). Caspase 3 assay was performed with Casp-3 cellular activity assay kit using Casp-3 substrate Ac-DEVD-pNA (Calbiochem). Active RhoA, active Src, and active Cdc42 assays were performed with G-LISA assay biochemical kit (Cytoskeleton, Inc.). Active GEF-H1 assay was performed by using GST-RhoA(G17A) to pull down the active GEF-H1 from cell extracts and analyzed by immunoblotting. Cytosol and mitochondria fractionations were prepared by the cytosol/mitochondria fractionation kit (Biovision), according to the manufacturer protocol. Cytoskeleton precipitation and G-actin/F-actin assay were performed by the G-actin/F-actin in vivo assay biochem kit (Cytoskeleton, Inc.)
(§1) WT and Bad-deficient fibroblasts were pre-treated with 30 nM Jasplakinolide (FIG. 10A and FIG. 10B), 5 μM Sphingosine-1-phosphate (S1P) (FIG. 10C and FIG. 10D) or DMSO (control) for 1 hour, followed by stimulation with or without 80 ng/ml TNFα for various times, as indicated. Cell extracts were separated into cytosol and mitochondrial fractions. Subcellular localizations of BAD and IKK-phosphorylated BAD were determined. ß-actin, BCL-xL, and COX-2 were used as control (FIG. 10A and FIG. 10C). Apoptotic cells were identified by Annexin V and PI staining, followed by flow cytometric analysis. Data are as means±s.d. **, P<0.01, as analyzed by two-tailed Student's t test (FIG. 10B and FIG. 10D).
(§2) WT and Bad-deficient fibroblasts were pretreated with 1 μg/ml Cytochalasin D (FIG. 10E and FIG. 10F), 2.5 μg/ml Latrunculin B (FIG. 10G and FIG. 10H), or DMSO (control) for 1 hours, followed by stimulation with or without 5 ng/ml or 80 ng/ml TNFα for 4 hours (FIG. 10E and FIG. 10G) or 12 hours (FIG. 10F and FIG. 10H). Cell extracts were separated into cytosol and mitochondrial fractions. Subcellular localizations of BAD and IKK phosphorylated BAD were determined. ß-actin, BCL-xL, and COX-2 were used as control (FIG. 10E and FIG. 10G). Apoptotic cells were identified by Annexin V and PI staining, followed by flow cytometric analysis. Data are means±s.d. and represent three individual experiments. **, P<0.01, as analyzed by two-tailed Student's t test (FIG. 10B, FIG. 10D, FIG. 10F, and FIG. 10H).

WT fibroblasts = assay: TNFα-induced apoptosis in fibroblasts pre-treated with actin stress fiber modulators, Annexin V/PI flow cytometry; format: cell-based, mouse; conditions: for cytotoxic dose TNFα-induced apoptosis: pre-treated 1 hour (30 nM Jasplakinolide or 5 μM S1P), then 80 ng/ml TNFα, FIG. 10B, 10D; for apoptosis with non-cytotoxic dose TNFα: pre-treated 1 hour (1 μg/ml Cytochalasin D or 2.5 μg/ml Latrunculin B), 5 ng/ml TNFα 12 hours, FIG. 10F, 10H
Experimental: Annexin V and propidium iodide (PI) staining was performed with FITC Annexin V apoptosis Detection kit (BD Pharmingen). Apoptotic cells were analyzed by FACS canto flow cytometer (BD Biosciences).
as §1, §2

[2] = test system: wild type mice subjected to CLP surgery; assay: Polymicrobial infection model (cecal ligation and puncture, CLP), mortality rate; format: in vivo, mouse; conditions: 2.5 mg/kg i.p. 6 hours before CLP and each 12 hours after surgery; n=10, p<0.01; FIG. 20B
Experimental: Wild type C57B6/J6 mice were maintained in a specific pathogen-free facility and housed on a 12:12-hour light/dark photoperiod at an ambient temperature of 22° C.±2° C. All animal experiments were conducted in accordance with the protocols approved by the Institutional Animal Care and Use Committee of the University of Chicago. 6-8 week old male mice were used for all of the experiments. The bacterial infusion model was performed by intraperitoneal (i.p.) injection of E. coli (ATCC 25922; 3×10^7 CFU). For the polymicrobial infection model, the CLP procedure was performed. The severity of CLP was adjusted to a high-grade sepsis. For the mock CLP procedure (Sham), mice underwent the same abdominal surgery as CLP procedure, except were not subject to the cecal ligation and puncture. Inhibitor treatments were performed using i.p. injection of the compound at a dose of 2.5 mg/kg body weight. Same amount of DMSO were i.p. injected as a control. […] Mortality rates were recorded for up to 120 hours for the CLP model and 50-60 hours for the E. coli model after the treatment and dying mice were pre-moved. […]
In these experiments, wild type mice were i.p injected with or without saracatinib (2.5 mg/kg body weight) for 6 hours, then challenged with E. coli (5×10^7CFU, i.p. injection). […] Mortality rate was determined (FIG. 20A); n=6, p<0.01. […] Mortality rate was determined (FIG. 20B); n=10, p<0.01.

IKKß = molecular target: T1, IKKß (Mus musculus, UniProt O88351); assay: IKKß phosphorylation by immunoblotting in TNFα-treated MEFs ("in vitro kinase assay"); format: cell-based; conditions: MEFs pre-treated with different doses for 1 hour, then cytotoxic TNFα 15 min; immunoblot, FIG. 17
T1 construct: Total cell lysate was prepared for western blotting analysis; endogenous in cells; host or cells: mouse embryonic fibroblasts (MEFs)
T1 sequence (O88351 1-757): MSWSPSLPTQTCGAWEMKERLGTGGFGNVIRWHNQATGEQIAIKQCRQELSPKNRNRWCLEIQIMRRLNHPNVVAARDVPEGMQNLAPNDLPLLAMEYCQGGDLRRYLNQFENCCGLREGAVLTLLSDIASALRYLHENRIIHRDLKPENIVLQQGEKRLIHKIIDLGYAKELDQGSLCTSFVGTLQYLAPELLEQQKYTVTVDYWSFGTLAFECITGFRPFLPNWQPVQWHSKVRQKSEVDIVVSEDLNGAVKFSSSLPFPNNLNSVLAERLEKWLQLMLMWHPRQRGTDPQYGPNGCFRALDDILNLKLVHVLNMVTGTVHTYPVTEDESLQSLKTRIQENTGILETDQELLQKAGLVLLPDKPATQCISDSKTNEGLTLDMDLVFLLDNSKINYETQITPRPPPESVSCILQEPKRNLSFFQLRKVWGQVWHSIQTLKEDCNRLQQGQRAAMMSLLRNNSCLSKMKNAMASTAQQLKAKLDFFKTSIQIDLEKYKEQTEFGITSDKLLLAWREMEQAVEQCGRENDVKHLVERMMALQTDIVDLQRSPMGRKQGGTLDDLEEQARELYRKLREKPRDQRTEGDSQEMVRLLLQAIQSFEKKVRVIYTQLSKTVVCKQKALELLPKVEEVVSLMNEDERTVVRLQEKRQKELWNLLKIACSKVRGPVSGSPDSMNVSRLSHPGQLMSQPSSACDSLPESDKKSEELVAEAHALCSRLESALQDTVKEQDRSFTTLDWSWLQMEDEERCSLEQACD

BAD [3] = assay: Cytotoxic dose TNFα-induced BAD translocation to mitochondria, cell fractionation and immunoblotting in MEFs; conditions: MEFs pre-treated with different doses 1 hour, cytotoxic TNFα 4 hours; FIG. 19B

In the case of `C/C1=C\[C@H](C)C[C@H](C)OC(=O)C[C@H](c2ccc(O)cc2)NC(=O)[C@@H](Cc2c(Br)[nH]c3ccccc23)N(C)C(=O)[C@H](C)NC(=O)[C@@H](C)C1` [Jasplakinolide], the “cytotoxic dose TNFα-induced BAD mitochondrial translocation” value (BAD [1]) was “significantly reduced” and the “cytotoxic dose TNFα-induced apoptosis” value (WT fibroblasts) was “significantly reduced”.

In the case of `[2H]C([2H])([2H])N1CCN(CCOc2cc(OC3CCOCC3)c3c(Nc4c(Cl)ccc5c4OCO5)ncnc3c2)CC1` [ZG5129], the “polymicrobial infection-induced severe sepsis (mortality rate)” value [2] was “inhibit”.

With `C=C1[C@@H](C)[C@H]2[C@H](Cc3ccccc3)NC(=O)[C@]23[C@H](OC(C)=O)/C=C/[C@@](C)(O)C(=O)[C@@H](C)C/C=C/[C@H]3[C@@H]1O` [cytochalasin D, Cytochalasin D] the “BAD mitochondrial translocation with non-cytotoxic dose TNFα” value (BAD [1]) was “induced” and the “apoptosis with non-cytotoxic dose TNFα” value (WT fibroblasts) was “induced”.

In the case of `Cc1nc(Nc2ncc(C(=O)Nc3c(C)cccc3Cl)s2)cc(N2CCN(CCO)CC2)n1.O` [dasatinib, N-(2-chloro-6-methylphenyl)-2-[[6-[4-(2-hydroxyethyl)-1-piperazinyl]-2-methyl-4-pyrimidinyl]amino]-5-thiazole carboxamide monohydrate], the IKK phosphorylation (IKKß) was “do not inhibit” and the “cytotoxic dose TNFα-induced BAD translocation to mitochondria” value (BAD [3]) was “inhibit”.

With `C/C1=C/C(=O)O[C@@H]2C[C@@H](CC[C@H](C)/C=C\CC1)O[C@@](O)([C@@H]1CSC(=O)N1)C2` [latrunculin B, Latrunculin B] the “BAD mitochondrial translocation with non-cytotoxic dose TNFα” value (BAD [1]) was “induced” and the “apoptosis with non-cytotoxic dose TNFα” value (WT fibroblasts) was “induced”.

For `CN1CCN(CCOc2cc(OC3CCOCC3)c3c(Nc4c(Cl)ccc5c4OCO5)ncnc3c2)CC1` [saracatinib], the “cytotoxic dose TNFα-induced BAD translocation to mitochondria” value (BAD [3]) was “inhibit”.

In the case of `CCCCCCCCCCCCC/C=C/[C@@H](O)[C@@H](N)COP(=O)(O)O` [sphingosine-1-phosphate, Sphingosine-1-phosphate], the “cytotoxic dose TNFα-induced BAD mitochondrial translocation” value (BAD [1]) was “significantly reduced” and the “cytotoxic dose TNFα-induced apoptosis” value (WT fibroblasts) was “significantly reduced”.
